In patent US12618070B2, “Increasing Atoh1 life to drive sensorineural hair cell differentiation” (Massachusetts Eye and Ear Infirmary, priority 2014, dated 2026):
“Also recorded” adds a separate entry of the source. Peptide text beside a SMILES is read from it. * marks the point of attachment. Cbz = O=C(OCc1ccccc1)*

B1: Atoh1: wild-type Atoh1 protein, FLAG- or FLAG-HA-tagged, expressed in HEK/293T cells (protein)
chain: MSRLLHAEEWAEVKELGDHHRQPQPHHLPQPPPPPQPPATLQAREHPVYPPELSLLDSTDPRAWLAPTLQGICTARAAQYLLHSPELGASEAAAPRDEVDGRGELVRRSSGGASSSKSPGPVKVREQLCKLKGGVVVDELGCSRQRAPSSKQVNGVQKQRRLAANARERRRMHGLNHAFDQLRNVIPSFNNDKKLSKYETLQMAQIYINALSELLQTPSGGEQPPPPPASCKSDHHHLRTAASYEGGAGNATAAGAQQASGGSQRPTPPGSCRTRFSAPASAGGYSVQLDALHFSTFEDSALTAMMAQKNLSPSLPGSILQPVQEENSKTSPRSHRSDGEFSPHSHYSDSDEAS
modifications: left off: large carriers
notes: wild-type Atoh1 protein, FLAG- or FLAG-HA-tagged, expressed in HEK/293T cells

Columns and labels:
Format in all cases: cell-based
[1] = tested on: Atoh1; experiment: Atoh1 level after proteasome inhibition in HEK cells transfected with FLAG-Atoh1; conditions: MG132 10 uM, 3 hours, vs DMSO
Protocol: (§1) FIGS. 2A-E. Atoh1 is degraded by the ubiquitin-proteasome pathway. […] HEK cells were transfected with FLAG-Atoh1 plasmid (1 ug/ml) for 24 hours, and incubated with either DMSO or MG132 (10 uM) for 3 hours and immunoprecipitated using FLAG (Atoh1) or beta-actin (loading control) antibodies. (B) FLAG-HA-Atoh1 293T cells were treated with cycloheximide (100 ug/ml) and MG132 (10 uM) at the indicated times and immunoprecipitated with FLAG (Atoh1) or beta-actin (loading control) antibodies. Time of treatment is indicated. (C) Half-lives based on densitometry from 3 experiments are shown. The ratio of Atoh1 to β-actin was plotted after normalization. Error bars indicate SEM. (D) & (E). Atoh1 is polyubiquitylated and degraded by the ubiquitin-proteasome pathway. FLAG-HA-Atoh1 293T cells were treated with either DMSO or MG132 (10 uM) for 6 hours. Lysates were immunoprecipitated with anti-FLAG antibody and subjected to immunoblotting with a ubiquitin antibody. FLAG was used to assess immunoprecipitation.
To determine if the ubiquitin-proteasome pathway was involved in Atoh1 degradation, HEK cells were transfected with FLAG-Atoh1 (1 μg/ml) using Lipofectamine 2000 (Invitrogen) for […] and either DMSO or MG132 (10 μM) for […]. Transfected cells were lysed in Pierce IP Lysis Buffer (Thermo) containing 1× complete protease inhibitors and 1×PhosSTOP phosphatase inhibitors (Roche). […]

[2] = tested on: Atoh1; experiment: Cycloheximide chase of Atoh1 with proteasome inhibitor or Huwe1 shRNA in FLAG-HA-Atoh1 293T cells; conditions: cycloheximide 100 ug/ml plus MG132 10 uM
Protocol: as §1, with “Atoh1 is polyubiquitylated and degraded by the ubiquitin-proteasome pathway. FLAG-HA-Atoh1 293T cells were treated with either DMSO or MG132 (10 uM) for 6 hours. Lysates were immunoprecipitated with anti-FLAG antibody and subjected to immunoblotting with a ubiquitin antibody. FLAG was used to assess immunoprecipitation.” left out
FIGS. 9A-D. Huwe1 plasmid increased and Huwe1 siRNA inhibited degradation of Atoh1. […] Quantification of Atoh1, Huwe1 and a loading control (HSC70) were performed by Western blotting and densitometry. […] Atoh1 (FLAG) and Huwe1 were analyzed by Western blotting and densitometry normalized to loading controls in three experiments. […]
HEK cells were transfected with either FLAG-Atoh1 (wild-type), or indicated mutant FLAG-Atoh1 plasmids (1 μg/ml) using Lipofectamine 2000 (3 μl per 1 μg of cDNA, Invitrogen). […] Protein bands were quantified by densitometry. The half-lives of indicated proteins were calculated using GraphPad Prism 6 software and a one-phase exponential-decay model.

[3] = tested on: Atoh1; experiment: Polyubiquitylation of Atoh1: anti-FLAG immunoprecipitation, ubiquitin immunoblot; conditions: MG132 10 uM, 6 hours
Protocol: as §1, with “immunoprecipitation. […]” for “immunoprecipitation.”
We then assessed polyubiquitylation of Atoh1 in the presence of a proteasome inhibitor which would prevent degradation of the ubiquitinated protein. […] The cell lysates were immunoprecipitated with anti-FLAG antibody, and the pattern of ubiquitylation was assessed with an anti-ubiquitin antibody.

[4] = tested on: Atoh1; experiment: Atoh1 level in P1 organ of Corti explants treated with proteasome inhibitor; conditions: P1 mouse organ of Corti, MG132 10 uM, 3 hours, vs DMSO
Protocol: FIG. 10. Inhibition of proteasome activity stabilizes Atoh1 in the cochlea. The organ of Corti from a P1 mouse was treated with proteasome inhibitor, MG132 (10 uM) for 3 hours. Atoh1 levels were higher in the MG132-treated organ of Corti. DMSO served as control; β-actin is a loading control.
Cochlear tissues were dissected from 1-day postnatal CD-1 mice (Charles River Laboratories). Spiral ganglion, Reissner's membrane, and the hook region of the organ of Corti were removed to obtain a flat cochlear surface preparation (Parker et al., 2010). Explants were plated onto 4-well plates (Greiner Bio-One) coated with Matrigel (BD Biosciences) diluted 1:10 in DMEM supplemented with 10% fetal bovine serum overnight.
To test whether proteasomal activity regulated Atoh1 in the cochlea we treated P1 organ of Corti explants with proteasome inhibitor, MG132 (10 uM).

[5] = tested on: FLAG-HA-Atoh1 293T cells; experiment: Cycloheximide chase, half-life of Atoh1 by Western blotting and densitometry
Protocol: FIGS. 1A-B. Atoh1 is a short-lived protein. (A) FLAG-HA-Atoh1 293T cells were treated with cycloheximide (100 ug/ml) and harvested at the indicated times. Lysates were processed for Western blotting with FLAG antibody (Atoh1) or β-actin antibody (loading control). Labels indicate the time of chase. (B) Protein half-lives based on densitometry. The ratio of Atoh1 to β-actin was plotted after normalizing to the initial ratio set to 100. Error bars indicate SEM.
HEK cells were transfected with either FLAG-Atoh1 (wild-type), or indicated mutant FLAG-Atoh1 plasmids (1 μg/ml) using Lipofectamine 2000 (3 μl per 1 μg of cDNA, Invitrogen). Forty-eight hours after transfection, 100 μg/ml cycloheximide (Sigma) was added to block protein synthesis. Cells were harvested at 0, 30, 60, 120, and 240 minutes. Equal amounts of protein from each treatment were taken for Western blotting. Protein bands were quantified by densitometry. The half-lives of indicated proteins were calculated using GraphPad Prism 6 software and a one-phase exponential-decay model.
To determine the half-life of Atoh1, we used cycloheximide to prevent new protein synthesis and followed the time course of disappearance of previously synthesized Atoh1 by Western blotting during a chase period. We transfected 293T cells with FLAG-HA-Atoh1 and treated with cycloheximide at 48 hours after transfection.

Molecule | level of Atoh1 [1] | half-life of Atoh1 [2] | level of Atoh1 protein ([3]; FLAG-HA-Atoh1 293T cells, reprobed blot and input protein) | density of high molecular weight poly-ubiquitin forms of Atoh1 ([3]; FLAG-HA-Atoh1 cells, vs DMSO) | Atoh1 level in organ of Corti [4] | turnover rate of Atoh1 [5]
CC(C)C[C@@H](C=O)NC(=O)[C@H](CC(C)C)NC(=O)[C@H](CC(C)C)NC(=O)OCc1ccccc1 [MG132] (Cbz-Leu-Leu-Leu-aldehyde) | significantly increased; also recorded: stabilized Atoh1 expression | extended the half-life | increased the level of protein | increased the density | increased; also recorded: higher | –
B1 | – | – | – | – | – | less than 1 hour
